# Measured values: patent publication US8017611B2, “Pyridine and pyrazine derivatives -083” (AstraZeneca AB, priority 2007, dated 2011)
# Marks after values point to notes of the source that are not given here.
# Target: T1, recombinant Axl tyrosine kinase (Homo sapiens, UniProt P30530)
# T1 construct: encompassing amino acids 473 to 894 of Axl; GST (N); made in house; host or cells: SF126 insect cells
# T1 sequence (P30530 473-894): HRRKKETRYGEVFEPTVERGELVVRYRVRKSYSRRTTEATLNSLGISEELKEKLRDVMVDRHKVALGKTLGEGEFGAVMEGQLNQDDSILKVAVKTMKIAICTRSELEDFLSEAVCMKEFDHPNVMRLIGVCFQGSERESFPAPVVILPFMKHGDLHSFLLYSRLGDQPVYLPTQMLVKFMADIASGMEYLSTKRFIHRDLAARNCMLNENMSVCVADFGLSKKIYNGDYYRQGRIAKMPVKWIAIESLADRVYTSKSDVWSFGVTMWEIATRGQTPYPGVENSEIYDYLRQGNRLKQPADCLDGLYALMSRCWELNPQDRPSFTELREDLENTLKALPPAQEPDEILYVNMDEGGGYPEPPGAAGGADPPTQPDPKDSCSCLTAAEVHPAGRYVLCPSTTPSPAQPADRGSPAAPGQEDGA
# Test: In vitro Axl kinase assay (AlphaScreen), Test (a)
# Format: biochemical
# Conditions: 1 μM; mean calculated from a larger number of replicates than the first value
row,"% Axl tyrosine kinase inhibition at 1 μM concentration (second value, †)",Compound
1,98.7%,Nc1ncc(-c2ccc(N3CCNCC3)nc2)nc1-c1nc2ccccc2o1 [Example 20.3]
2,99.4%,Nc1ncc(-c2ccc(CN3CCOCC3)cc2)cc1-c1nc2ccncc2o1 [Example 11A.1]

# Same assay, conditions: test compound at 1 μM; first value quoted
row,Compound,% Axl tyrosine kinase inhibition at 1 μM concentration
1,Nc1ncc(-c2ccc(CN3CCOCC3)cc2)cc1-c1nc2cccnc2o1 [Example 9A.21],95.6%
2,Nc1ncc(-c2ccc(OCCCN3CCOCC3)cc2)cc1-c1nc2ncccc2o1 [Example 43B.19],95.8%
3,Nc1ncc(-c2cnn(CCCN3CCCC3)c2)cc1-c1nc2ccccc2o1 [Example 27.2],99.9%
4,Nc1ncc(-c2ccc(N3CCNCC3)nc2)nc1-c1nc2ccccc2o1 [Example 20.3],99.3%
5,Nc1ncc(-c2ccc(S(=O)(=O)NCCO)cc2)cc1-c1nc2cnccc2o1 [Example 8A.2],99.2%
6,Nc1ncc(-c2cccc(N3CCOCC3)c2)nc1-c1nc2ccccc2o1 [Example 20.8],98.9%
7,CC(C)(C)OC(=O)N1CCC(C(=O)Nc2cccc(-c3cnc(N)c(-c4nc5cccnc5o4)c3)c2)CC1 [Example 9A.3],73.4%
8,Nc1ncc(-c2cccc(S(=O)(=O)NC3CC3)c2)cc1-c1nc2ncccc2o1 [Example 10A.10],90.0%
9,CS(=O)(=O)N1CCN(CCCOc2ccc(-c3cnc(N)c(-c4nc5ncccc5o4)c3)cc2)CC1 [Example 43B.15],86.0%
10,Nc1ncc(-c2ccc(OCCN3CCCCC3)cc2)cc1-c1nc2ncccc2o1 [Example 43B.8],19.0^††† %
11,COCc1cccc(-c2cnc(N)c(-c3nc4ncccc4o3)c2)c1 [Example 10A.16],99.9%
12,CN(C)CCNC(=O)c1cccc(-c2cnc(N)c(-c3nc4ncccc4o3)c2)c1 [Example 10A.18],84.7%
13,Nc1ncc(-c2cccc(CN3CCCC3)c2)cc1-c1nc2ncccc2o1 [Example 10A.7],95.9%
14,Nc1ncc(-c2cnn(CCN3CCC(O)CC3)c2)cc1-c1nc2ccccc2o1 [Example 31.9],99.8%
15,Nc1ncc(-c2ccc(CN3CCOCC3)cc2)cc1-c1nc2ccncc2o1 [Example 11A.1],99.6%
16,COCc1nn(C2CCN(C)CC2)cc1-c1cnc(N)c(-c2nc3cccc(OC)c3o2)c1 [Example 41.43],100.0%
17,NCc1ccc(-c2cnc(N)c(-c3nc4ncccc4o3)c2)cc1 [Example 10A.4],99.0%
18,CN(C)c1cccc(-c2cnc(N)c(-c3nc4ccccc4o3)c2)c1 [Example 2.50],90.0%
19,CN1CCCC(Cn2cc(-c3cnc(N)c(-c4nc5ccccc5o4)c3)cn2)C1 (centres unmarked) [Example 27.1],100.0%
20,Nc1ncc(-c2ccc(C(=O)N3CCOCC3)cc2)cc1-c1nc2cnccc2o1 [Example 8A.12],97.8%
21,Nc1ncc(-c2cccc(C(=O)NC3CC3)c2)cc1-c1nc2ncccc2o1 [Example 10A.6],37.8%
22,CN1CCCC1CCOc1ccc(-c2cnc(N)c(-c3nc4ncccc4o3)c2)cc1 (centres unmarked) [Example 43B.17],99.5%
23,CN1CCN(c2ncc(-c3cnc(N)c(-c4nc5cccnc5o4)c3)s2)CC1 [Example 25.12],38.2%
24,Nc1ncc(-c2cnn(C3CCNCC3)c2)cc1-c1nc2cccc(F)c2o1 [Example 38.3],100.0%
25,CN(C)S(=O)(=O)c1cccc(-c2cnc(N)c(-c3nc4ccccc4o3)c2)c1 [Example 2.39],17.1* %
26,Nc1ncc(-c2cccc(N3CCCCC3)c2)cc1-c1nc2ccncc2o1 [Example 11A.6],90.0%

# Now from value to compound:
row,% Axl tyrosine kinase inhibition at 1 μM concentration,Compound
1,93.7%,NC(=O)CCN1CCN(C(=O)c2ccc(-c3cnc(N)c(-c4nc5cccnc5o4)c3)cc2)CC1 [Example 45A.71]
2,95.3%,Nc1ncc(-c2ccc(C(=O)N3CCC4(CCNCC4)CC3)cc2)cc1-c1nc2cccnc2o1 [Example 45A.100]
3,98.6%,CNCCCOc1ccc(-c2cnc(N)c(-c3nc4ncccc4o3)c2)cc1 [Example 43B.32]
4,98.2%,CNCCOc1ccc(-c2cnc(N)c(-c3nc4ncccc4o3)c2)cc1OC [Example 43C.22]
5,99.6%,Nc1ncc(-c2ccc(C(=O)N3CCCC3CN3CCCCCC3)cc2)cc1-c1nc2cccnc2o1 (centres unmarked) [Example 45A.17]
6,96.1%,CN1CCN(C(=O)c2ccc(-c3cnc(N)c(-c4nc5cccnc5o4)c3)cc2)CC1 [Example 45A.49]
7,99.4%,COc1cc(-c2cnc(N)c(-c3nc4ncccc4o3)c2)ccc1OCCN(C)C [Example 43C.3]
8,99.8%,Nc1ncc(-c2ccc(C(=O)N3CCCCC3CN3CCCCC3)cc2)cc1-c1nc2cccnc2o1 (centres unmarked) [Example 45A.8]
9,99.1%,Nc1ncc(-c2ccc(C(=O)NC3CCCNC3)cc2)cc1-c1nc2cccnc2o1 (centres unmarked) [Example 45A.84]
10,95.8%,Nc1ncc(-c2ccc(C(=O)N3CCC(C4CCNCC4)CC3)cc2)cc1-c1nc2cccnc2o1 [Example 45A.86]
11,51.0%,CNCCCOc1ccc(-c2cnc(N)c(-c3nc4ncccc4o3)c2)cc1OC [Example 43C.28]
12,98.8%,Nc1ncc(-c2cnn(C3CCN(S(=O)(=O)C4CC4)CC3)c2)cc1-c1nc2ncccc2o1 [Example 55.2]
13,98.8%,CN(C)C(=O)c1nn(C2CCNCC2)cc1-c1cnc(N)c(-c2nc3ccccc3o2)c1 [Example 62.2]
14,96.3%,Nc1ncc(-c2ccc(C(=O)N3CCCC4(CCNCC4)C3)cc2)cc1-c1nc2cccnc2o1 [Example 45A.91]
15,99.9%,Nc1ncc(-c2ccc(C(=O)N3CCC[C@H]3CN3CCCC3)cc2)cc1-c1nc2cccnc2o1 [Example 45A.66]
16,98.9%,Nc1ncc(-c2ccc(OC3CCCNC3)cc2)cc1-c1nc2ncccc2o1 (centres unmarked) [Example 43B.30]
17,96.3%,Nc1ncc(-c2ccc(C(=O)NCCN3CCS(=O)(=O)CC3)cc2)cc1-c1nc2cccnc2o1 [Example 45A.12]
18,98.0%,CN1CCC(N(C)C(=O)c2ccc(-c3cnc(N)c(-c4nc5cccnc5o4)c3)cc2)C1 (centres unmarked) [Example 45A.3]
19,8.1^†††† %,Nc1ncc(-c2ccc(OCCCN3CCNCC3)cc2)cc1-c1nc2ncccc2o1 [Example 43B.38]
20,97.9%,CN1CCC(CNC(=O)c2ccc(-c3cnc(N)c(-c4nc5cccnc5o4)c3)cc2)C1 (centres unmarked) [Example 45A.27]
21,97.7%,Nc1ncc(-c2ccc(OCCC3CCCCN3)cc2)cc1-c1nc2ncccc2o1 (centres unmarked) [Example 43B.40]
22,97.7%,Nc1ncc(-c2ccc(C(=O)NCCn3ccnc3)cc2)cc1-c1nc2cccnc2o1 [Example 45A.7]

# Same assay, conditions: test compound at 1 μM; first value quoted; read-out: % Axl tyrosine kinase inhibition at 1 μM concentration
row,Compound,inhibition at 1 µM
1,"Nc1ncc(-c2cnn(C3CCNCC3)c2)nc1-c1nc2ccc(F)cc2o1 [Example 17A.1, 3-(6-fluoro-1,3-benzoxazol-2-yl)-5-[1-(4-piperidyl)pyrazol-4-yl]pyrazin-2-amine]",98.5%
2,"CN1CCC(n2cc(-c3cnc(N)c(-c4nc5c(F)cccc5o4)c3)cn2)CC1 [Example 6, 3-(4-Fluoro-1,3-benzoxazol-2-yl)-5-[1-(1-methyl-4-piperidyl)pyrazol-4-yl]pyridin-2-amine]",99.9%

# More lines, now with the values ahead:
row,inhibition at 1 µM,Compound
1,73.4%,"Nc1ncc(-c2cccc(N3CCOCC3)c2)nc1-c1nc2ccccc2s1 [Example 49, 3-(1,3-Benzothiazol-2-yl)-5-(3-morpholinophenyl)pyrazin-2-amine]"
2,100%,"COCc1nn(C2CCN(C(=O)CN(C)C)CC2)cc1-c1cnc(N)c(-c2nc3ccccc3o2)c1 [Example 71, 1-[4-[4-[6-amino-5-(1,3-benzoxazol-2-yl)-3-pyridyl]-3-(methoxymethyl)pyrazol-1-yl]-1-piperidyl]-2-dimethylaminoethanone]"
3,99.9%,"CNC(=O)[C@@H]1C[C@@H](n2cc(-c3cnc(N)c(-c4nc5ccccc5o4)c3)cn2)CN1 [Example 51, (2S,4R)-4-[4-[6-amino-5-(1,3-benzoxazol-2-yl)-3-pyridyl]pyrazol-1-yl]-N-methyl-pyrrolidine-2-carboxamide]"
4,99.9%,"CNC(=O)c1cccc2nc(-c3cc(-c4cnn(C5CCNCC5)c4)cnc3N)oc12 [Example 70, 2-[2-amino-5-[1-(4-piperidyl)pyrazol-4-yl]-3-pyridyl]-N-methyl-1,3-benzoxazole-7-carboxamide]"

# Same assay, conditions: test compound at 30 μM
row,Compound,% of Axl tyrosine kinase activity inhibited at a concentration of 30 μM
1,Nc1ncc(-c2ccc(OCCN3CCCCC3)cc2)cc1-c1nc2ncccc2o1 [Example 43B.8],^†††the compound disclosed in Example 43B.8 inhibited 98% of Axl tyrosine kinase activity at a concentration of 30 μM.
2,Nc1ncc(-c2ccc(OCCCN3CCNCC3)cc2)cc1-c1nc2ncccc2o1 [Example 43B.38],^††††the compound disclosed in Example 43B.38 inhibited 95.3% of Axl tyrosine kinase activity at a concentration of 30 μM.
3,CN(C)S(=O)(=O)c1cccc(-c2cnc(N)c(-c3nc4ccccc4o3)c2)c1 [Example 2.39],*the compound disclosed in Example 2.39 inhibited 58.6% of Axl tyrosine kinase activity at a concentration of 30 μM.
